Results on 1 compound are retold here after patent US20170209579A1, “NON-INVASIVE RADIOFREQUENCY FIELD TREATMENT FOR CANCER THERAPY” (Baylor College of Medicine, priority 2014, published 2017).

Data set [1] has as its system orthotopic pancreatic tumors (KPC pancreatic adenocarcinoma cells). The experiment in a line: Gemcitabine uptake into orthotopic KPC pancreatic tumors with and without RF (LC-MS). It counts as in vivo, mouse. To be noted: 70 mg/Kg systemic injection, sacrificed 5 hours later, RF until 41° C. The text has this: FIGS. 11A-11E illustrate an example of an embodiment of the use RF energy to enhance the uptake of chemotherapy drugs into tumors compared to using chemotherapy drugs alone. (11A) Female Nude mice (4-6 weeks old) were given direct injections of KPC pancreatic adenocarcinoma cells (1×10^6) into the pancreas. After 1-2 weeks (enough time for a orthotopic pancreatic tumor to form) the mice were subjected to RF exposure under a ramped power treatment protocol as shown in the table. (11B) Graph of a typical RF power and resulting temperature versus time plot for a single mouse being exposed to RF energy. The surface temperature of the mouse in close proximity to the pancreas was recorded using an IR camera. The RF exposure was turned off once the temperature reached 41° C. […] Quantification of Gemcitabine was analyzed using Liquid Chromatography Mass Spectroscopy (LC-MS). (11E) Quantification of the levels of Gemcitabine in the orthotopic pancreatic tumors of mice with and without RF exposure. […]
FIGS. 11A-11E illustrate an example of an embodiment of the use RF energy to enhance the uptake of chemotherapy drugs into tumors compared to using chemotherapy drugs alone. […] The surface temperature of the mouse in close proximity to the pancreas was recorded using an IR camera. […] Quantification of Gemcitabine was analyzed using Liquid Chromatography Mass Spectroscopy (LC-MS). […]

The next data set deals with Hep3B cells. In words: Clonogenic assay, Hep3B cells. The data set is classed as cell-based, human. The method, then:
(§1) Clonogenic assay estimates single-cell reproductive viability by measuring the ability of a single cell to form a colony of 50 cells or more. Clonogenic assay in this study was performed as described previously (Franken et al., 2006). Briefly, cancer cells from an exponentially growing, sub-confluent culture were trypsinized and harvested. Approximately 200 cells were counted and plated in each well of a 6-well plate. Approximately 12 hours later, the cells were adherent and treatment conditions were introduced as described herein. After varying treatments, media was replaced and cells were allowed 14 days to form colonies. Subsequently, the media was aspirated and cells were washed with PBS once. Colonies were then fixed with glutaraldehyde (6.0% v/v) and stained with crystal violet (0.5% w/v) for 30 minutes on a leveled shaker at 50 RPM. The fixation and staining solution was then aspirated and the 6-well plates were air-dried after gentle rinsing with tap water. The number of colonies in each well was counted using a colony counting grid. […]
Clonogenic assays were performed on Hep3B cells and SNU449 cells after one of two combinations of hyperthermia and gemcitabine compared with hyperthermia or gemcitabine alone. […] Next, clonogenic viability was evaluated at a gemcitabine concentration of 5 ng/ml and varied the duration of hyperthermia (30 minutes to 4 hours). […]

The test system of a further data set is SNU449 cells. The experiment in a line: Clonogenic assay, SNU449 cells. It counts as cell-based, human. As to conditions: irrespective of dose schedule. How it is done: as §1
Clonogenic assays were performed on Hep3B cells and SNU449 cells after one of two combinations of hyperthermia and gemcitabine compared with hyperthermia or gemcitabine alone. […] Next, clonogenic viability was evaluated at a gemcitabine concentration of 5 ng/ml and varied the duration of hyperthermia (30 minutes to 4 hours).

As for `Nc1ccn([C@@H]2O[C@H](CO)[C@@H](O)C2(F)F)c(=O)n1` [gemcitabine, 2′,2′-difluoro 2′-deoxycytidine], in data set [1], the “Gemcitabine present in tumors, RF-treated mice versus control group” value is on record as “approximately 4 ×”. In addition, the “clonogenic survival, gemcitabine combined with hyperthermia” value with Hep3B cells (Hep3B, irrespective of dose schedule) is reported as “dose-dependent enhancement of gemcitabine toxicity”; in the data set on SNU449 cells, “dose-dependent enhancement of gemcitabine toxicity”. Moreover, in the data set on Hep3B cells (gemcitabine 5 ng/ml, hyperthermia 30 minutes to 4 hours, cell line not named in the sentence (Hep3B and SNU449 in FIG. 17)), the “clonogenic viability, varied duration of hyperthermia” value is listed as “thermal dose-dependent enhancement in toxicity”.
